# Reference: patent US12421252B2, “Spiro (isobenzofuranazetidine) compounds for the treatment of autoimmune disease” (Hoffmann-La Roche Inc., priority 2020, dated 2025)
# Molecular target: T1, human TLR8 (Homo sapiens, UniProt Q9NR97)
# T1 sequence (Q9NR97 27-1041): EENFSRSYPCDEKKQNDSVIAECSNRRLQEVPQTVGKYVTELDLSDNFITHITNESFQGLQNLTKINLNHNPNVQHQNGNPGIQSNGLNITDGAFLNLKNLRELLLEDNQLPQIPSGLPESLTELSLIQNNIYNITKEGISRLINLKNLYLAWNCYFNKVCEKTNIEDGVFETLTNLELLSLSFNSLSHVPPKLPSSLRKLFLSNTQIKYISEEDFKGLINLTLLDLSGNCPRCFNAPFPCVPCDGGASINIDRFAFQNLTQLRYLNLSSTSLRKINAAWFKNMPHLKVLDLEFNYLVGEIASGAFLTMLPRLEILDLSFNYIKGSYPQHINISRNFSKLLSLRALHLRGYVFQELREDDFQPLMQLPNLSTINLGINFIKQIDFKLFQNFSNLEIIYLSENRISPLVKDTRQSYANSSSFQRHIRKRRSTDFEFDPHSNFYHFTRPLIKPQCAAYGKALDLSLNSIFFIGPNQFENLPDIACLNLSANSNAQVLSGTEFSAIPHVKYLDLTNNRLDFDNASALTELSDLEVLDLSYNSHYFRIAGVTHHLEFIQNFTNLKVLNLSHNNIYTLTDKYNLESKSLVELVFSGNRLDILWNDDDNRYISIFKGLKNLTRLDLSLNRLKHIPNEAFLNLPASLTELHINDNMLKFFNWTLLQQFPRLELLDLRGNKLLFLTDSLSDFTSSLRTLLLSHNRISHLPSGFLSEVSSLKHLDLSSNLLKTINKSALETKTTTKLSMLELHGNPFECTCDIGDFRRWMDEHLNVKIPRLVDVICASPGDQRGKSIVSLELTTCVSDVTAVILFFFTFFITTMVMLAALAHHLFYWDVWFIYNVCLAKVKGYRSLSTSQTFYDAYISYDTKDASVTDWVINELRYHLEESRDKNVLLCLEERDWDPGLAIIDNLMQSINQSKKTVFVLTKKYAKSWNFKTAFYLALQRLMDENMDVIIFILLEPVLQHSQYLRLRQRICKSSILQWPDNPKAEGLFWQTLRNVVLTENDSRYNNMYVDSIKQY
# Assay: HEK293-Blue-hTLR-8 cells assay
# Format: cell-based
# Details: HEK293-Blue-hTLR8 cells, R848 stimulation, 20 hrs, SEAP reporter; read-out: HEK/hTLR8 IC50
# Source text: HEK293-Blue-hTLR-8 cells assay:
# A stable HEK293-Blue-hTLR-8 cell line was purchased from InvivoGen (Cat. #: hkb-htlr8, San Diego, California, USA). These cells were originally designed for studying the stimulation of human TLR8 by monitoring the activation of NF-κB. A SEAP (secreted embryonic alkaline phosphatase) reporter gene was placed under the control of the IFN-β minimal promoter fused to five NF-κB and AP-1-binding sites. The SEAP was induced by activating NF-κB and AP-1 via stimulating HEK-Blue hTLR8 cells with TLR8 ligands. Therefore the reporter expression was declined by TLR8 antagonist under the stimulation of a ligand, such as R848, for incubation of 20 hrs. The cell culture supernatant SEAP reporter activity was determined using QUANTI-Blue™kit (Cat. #: rep-qb1, Invivogen, San Diego, Ca, USA) at a wavelength of 640 nm, a detection medium that turns purple or blue in the presence of alkaline phosphatase.
# HEK293-Blue-hTLR8 cells were incubated at a density of 250,000˜450,000 cells/mL in a volume of 170 μL in a 96-well plate in Dulbecco's Modified Eagle's medium (DMEM) containing 4.5 g/L glucose, 50 U/mL penicillin, […], […], 2 mM L-glutamine, 10% (v/v) heat-inactivated fetal bovine serum with addition of 20 μL test compound in a serial dilution in the presence of final DMSO at 1% and 10 μL of 60 uM R848 in above DMEM, perform incubation under 37° C. in a CO2 incubator for 20 hrs. Then 20 μL of the supernatant from each well was incubated with 180 μL Quanti-blue substrate solution at 37° C. for 2 hrs and the absorbance was read at 620-655 nm using a spectrophotometer. The signaling pathway that TLR8 activation leads to downstream NF-κB activation has been widely accepted, and therefore similar reporter assay was modified for evaluating TLR8 antagonist.
row,IC50 [nM],SMILES
1,234,"C[C@@H]1CN(c2ccc(C#N)n3nccc23)C[C@H](CN2CC3(C2)OCc2cc(N4CC(C)(N)C4)cnc23)O1 [Example 26, 4-[(2S,6R)-2-[[3-(3-amino-3-methyl-azetidin-1-yl)spiro[5H-furo[3,4-b]pyridine-7,3′-azetidine]-1′-yl]methyl]-6-methyl-morpholin-4-yl]pyrazolo[1,5-a]pyridine-7-carbonitrile]"
2,22,"[2H]c1ccc2c(N3C[C@H](CN4CC5(C4)OCc4cc(N6CC(N)C6)ncc45)O[C@H](C)C3)ccc(C#N)c2n1 [Example 32, 5-[(2S,6R)-2-[[6-(3-aminoazetidin-1-yl)spiro[1H-furo[3,4-c]pyridine-3,3′-azetidine]-1′-yl]methyl]-6-methyl-morpholin-4-yl]-2-deuterio-quinoline-8-carbonitrile]"
3,24,"C[C@@H]1CN(c2ccc(C#N)n3ncc(F)c23)C[C@H](CN2CC3(C2)OCc2cc(N4CCNCC4)ccc23)O1 [Example 6, 3-fluoro-4-[(2R,6S)-2-methyl-6-[(6-piperazin-1-ylspiro[1H-isobenzofuran-3,3′-azetidine]-1′-yl)methyl]morpholin-4-yl]pyrazolo[1,5-a]pyridine-7-carbonitrile]"
4,17,"[2H]c1ccc2c(N3C[C@H](CN4CC5(C4)OCc4cc(N6CC(C)(N)C6)cnc45)O[C@H](C)C3)ccc(C#N)c2n1 [Example 21, 5-[(2S,6R)-2-[[3-(3-amino-3-methyl-azetidin-1-yl)spiro[5H-furo[3,4-b]pyridine-7,3′-azetidine]-1′-yl]methyl]-6-methyl-morpholin-4-yl]-2-deuterio-quinoline-8-carbonitrile]"
5,10,"[2H]c1ccc2c(N3C[C@H](CN4CC5(C4)OCc4cc(N6CCNCC6)ccc45)O[C@H](C)C3)ccc(C#N)c2n1 [Example 18, 2-deuterio-5-[(2R,6S)-2-methyl-6-[(6-piperazin-1-ylspiro[1H-isobenzofuran-3,3′-azetidine]-1′-yl)methyl]morpholin-4-yl]quinoline-8-carbonitrile]"
6,59,"C[C@@H]1CN(c2ccc(C#N)n3ncc(F)c23)C[C@H](CN2CC3(C2)OCc2cc(N4CC(C)(N)C4)ncc23)O1 [Example 24, 4-[(2S,6R)-2-[[6-(3-amino-3-methyl-azetidin-1-yl)spiro[1H-furo[3,4-c]pyridine-3,3′-azetidine]-1′-yl]methyl]-6-methyl-morpholin-4-yl]-3-fluoro-pyrazolo[1,5-a]pyridine-7-carbonitrile]"
7,30,"[2H]c1ccc2c(N3C[C@H](CN4CC5(C4)OCc4cc(N6CC(N)C6)cnc45)O[C@H](C)C3)ccc(C#N)c2n1 [Example 20, 5-[(2S,6R)-2-[[3-(3-aminoazetidin-1-yl)spiro[5H-furo[3,4-b]pyridine-7,3′-azetidine]-1′-yl]methyl]-6-methyl-morpholin-4-yl]-2-deuterio-quinoline-8-carbonitrile]"
8,58,"C[C@@H]1CN(c2ccc(C#N)n3nccc23)C[C@H](CN2CC3(C2)OCc2cc(N4CC5(CNCCO5)C4)ccc23)O1 [Example 7, 4-[(2R,6S)-2-methyl-6-[[6-(5-oxa-2,8-diazaspiro[3.5]nonan-2-yl)spiro[1H-isobenzofuran-3,3′-azetidine]-1′-yl]methyl]morpholin-4-yl]pyrazolo[1,5-a]pyridine-7-carbonitrile]"
9,409,"C[C@@H]1CN(c2cc(=O)n(C)c3ncccc23)C[C@H](CN2CC3(C2)OCc2cc(N4CC(N)C4)ccc23)O1 [Example 13, 4-[(2S,6R)-2-[[6-(3-aminoazetidin-1-yl)spiro[1H-isobenzofuran-3,3′-azetidine]-1′-yl]methyl]-6-methyl-morpholin-4-yl]-1-methyl-1,8-naphthyridin-2-one]"
10,22,"C[C@@H]1CN(c2ccc(C#N)n3ncc(F)c23)C[C@H](CN2CC3(C2)OCc2cc(N4CC[C@](C)(N)C4)ccc23)O1 [Example 5, 4-[(2S,6R)-2-[[6-[(3S)-3-amino-3-methyl-pyrrolidin-1-yl]spiro[1H-isobenzofuran-3,3′-azetidine]-1′-yl]methyl]-6-methyl-morpholin-4-yl]-3-fluoro-pyrazolo[1,5-a]pyridine-7-carbonitrile]"
11,25,"C[C@@H]1CN(c2ccc(C#N)n3ncc(F)c23)C[C@H](CN2CC3(C2)OCc2cc(N4CC5(CN(C)C5)C4)ccc23)O1 [Example 2, 3-fluoro-4-[(2R,6S)-2-methyl-6-[[6-(6-methyl-2,6-diazaspiro[3.3]heptan-2-yl)spiro[1H-isobenzofuran-3,3′-azetidine]-1′-yl]methyl]morpholin-4-yl]pyrazolo[1,5-a]pyridine-7-carbonitrile]"
12,64,"C[C@@H]1CN(c2ccc(C#N)n3ncc(F)c23)C[C@H](CN2CC3(C2)OCc2cc(N4CC5(CN(C)C5)C4)cnc23)O1 [Example 22, 3-fluoro-4-[(2R,6S)-2-methyl-6-[[3-(6-methyl-2,6-diazaspiro[3.3]heptan-2-yl)spiro[5H-furo[3,4-b]pyridine-7,3′-azetidine]-1′-yl]methyl]morpholin-4-yl]pyrazolo[1,5-a]pyridine-7-carbonitrile]"
13,37,"C[C@@H]1CN(c2ccc(C#N)n3ncc(F)c23)C[C@H](CN2CC3(C2)OCc2cc(N4CC5(CNC5)C4)ccc23)O1 [Example 12, 4-[(2S,6R)-2-[[6-(2,6-diazaspiro[3.3]heptan-2-yl)spiro[1H-isobenzofuran-3,3′-azetidine]-1′-yl]methyl]-6-methyl-morpholin-4-yl]-3-fluoro-pyrazolo[1,5-a]pyridine-7-carbonitrile]"
14,142,"C[C@@H]1CN(c2ccc(C#N)n3ncc(F)c23)C[C@H](CN2CC3(C2)OCc2cc(N4C[C@H](N)[C@@H](O)C4)ccc23)O1 [Example 10, 4-[(2S,6R)-2-[[6-[(3S,4S)-3-amino-4-hydroxy-pyrrolidin-1-yl]spiro[1H-isobenzofuran-3,3′-azetidine]-1′-yl]methyl]-6-methyl-morpholin-4-yl]-3-fluoro-pyrazolo[1,5-a]pyridine-7-carbonitrile]"
15,35,"C[C@@H]1CN(c2ccc(C#N)n3ncc(F)c23)C[C@H](CN2CC3(C2)OCc2cc(N4CC5(CNCCO5)C4)ccc23)O1 [Example 4, 3-fluoro-4-[(2R,6S)-2-methyl-6-[[6-(5-oxa-2,8-diazaspiro[3.5]nonan-2-yl)spiro[1H-isobenzofuran-3,3′-azetidine]-1′-yl]methyl]morpholin-4-yl]pyrazolo[1,5-a]pyridine-7-carbonitrile]"
16,99,"C[C@@H]1CN(c2ccc(C#N)n3nccc23)C[C@H](CN2CC3(C2)OCc2cc(N4CC(N)C4)ccc23)O1 [Example 19, 4-[(2S,6R)-2-[[6-(3-aminoazetidin-1-yl)spiro[1H-isobenzofuran-3,3′-azetidine]-1′-yl]methyl]-6-methyl-morpholin-4-yl]pyrazolo[1,5-a]pyridine-7-carbonitrile]"
17,45,"C[C@@H]1CN(c2ccc(C#N)n3ncc(F)c23)C[C@H](CN2CC3(C2)OCc2cc(N4CC(N)C4)ccc23)O1 [Example 9, 4-[(2S,6R)-2-[[6-(3-aminoazetidin-1-yl)spiro[1H-isobenzofuran-3,3′-azetidine]-1′-yl]methyl]-6-methyl-morpholin-4-yl]-3-fluoro-pyrazolo[1,5-a]pyridine-7-carbonitrile]"
